Results: patent US4656192A, “Tropolone derivatives, processes for the preparation thereof and the use thereof as anti-tumor agents” (Mect Corporation, priority 1984, dated 1987)
Values after ≈ are worked out from the molar mass of the structure shown.

Tests used:
Acute toxicity in mice = conditions: mouse, in vivo, male mice
Description: The compounds of the present invention have only a low acute toxicity. For example, the acute toxicities of typical compounds, i.e., α,α-bis(2-hydroxy-6-isopropyl-tropon-3-yl)toluene (IIIa) and α,α-bis(2-hydroxy-6-isopropyl-tropon-3-yl)-4-methoxytoluene (IIIb) have LD50 as shown in the following table: […]

P388 cancer cells = experiment: Tests of life-prolongation effects on cancered mice (P388, i.p.); type: in vivo; conditions: Mus musculus, P388, ip, i.p. on first and fifth day, P388 in CDF mice, read-out: Life-prolongation effects T/C %
Protocol: 10^6 P388 cancer cells were grafted into groups of CDF mice. Each group consisted of six mice. On the first day and the fifth day, a sample to be tested was administered to the mice intraperitoneally. The life-prolongation effects were shown in terms of the ratio of the number of surviving days of the mice in the treated group to that in the control group (T/C %).

KB-cells = experiment: KB-cell growth inhibition tests; type: cell-based; conditions: Homo sapiens, 48 h, MEM-10% calf serum, 5% CO2, 37° C., sample added second day, surviving cells counted fourth day, substantially 50% growth inhibition vs sample-free control, read-out: KB cell growth inhibition ED50
Protocol: KB-cells were placed in an Eagles minimal essential medium (MEM)-10% calf serum medium and cultered in a 5 % carbon dioxide atmosphere at 37° C. in an incubator. The cells thus treated were used in the tests. On the first day, the KB cells were diluted to a concentration of 2×10^4 /ml 3 ml of the resulting suspension was placed in watch glasses having a diameter of 60 mm. On the second day, 100, 30, 10, 3 and 1 μg/ml of each sample to be tested was added thereto and the culture was continued under the same conditions as above. On the fourth day, the surviving cells were taken out of the watch glass by meand of trypsin and the number of the cells was counted. The concentration of the sample required for obtaining substantially 50 % growth inhibition based on the sample-free control (ED50) was determined. The cancer cell growth inhibition effect of the sample was shown by ED50.

Q: Which LD50 (Acute toxicity in mice; ip) does the source give for `CC(C)c1ccc(C(c2ccccc2)c2ccc(C(C)C)cc(=O)c2O)c(O)c(=O)c1` [IIIa, α,α-bis(2-hydroxy-6-isopropyl-tropon-3-yl)toluene] here?
A: 5.5 mg/kg

Q: And the LD50 (Acute toxicity in mice; iv)?
A: 5.8 mg/kg

Q: What about the LD50 (Acute toxicity in mice; po) of the same compound?
A: > 5000 mg/kg

Q: And the response vs control in vivo at 1.25 mg/kg (P388 cancer cells; 1.25 mg/kg)?
A: 132%

Q: And the response vs control in vivo at 5 mg/kg (P388 cancer cells)?
A: 188%

Q: And the IC50 (KB-cells)?
A: < 0.3 µg/mL

Q: Which LD50 (Acute toxicity in mice; ip) does the source give for `COc1ccc(C(c2ccc(C(C)C)cc(=O)c2O)c2ccc(C(C)C)cc(=O)c2O)cc1` [IIIb, α,α-bis(2-hydroxy-6-isopropyl-tropon-3-yl)-4-methoxytoluene] here?
A: 11.2 mg/kg

Q: What about the LD50 (Acute toxicity in mice; iv) of the same compound?
A: 9.1 mg/kg

Q: And the LD50 (Acute toxicity in mice; po)?
A: > 5000 mg/kg

Q: What about the response vs control in vivo at 0.62 mg/kg (P388 cancer cells; 0.62 mg/kg) of the same compound?
A: 127%

Q: What about the response vs control in vivo at 5 mg/kg (P388 cancer cells) of the same compound?
A: 173%

Q: And the IC50 (KB-cells)?
A: < 0.3 µg/mL

Q: With `Cc1ccc(C(c2ccc(C(C)C)cc(=O)c2O)c2ccc(C(C)C)cc(=O)c2O)cc1` [IIIc, α,α-bis(2-hydroxy-6-isopropyl-tropon-3-yl)-4-methyltoluene] as the compound, how does the response vs control in vivo at 2.5 mg/kg (P388 cancer cells) read?
A: 125%

Q: What about the response vs control in vivo at 10 mg/kg (P388 cancer cells) of the same compound?
A: 163%

Q: What about the IC50 (KB-cells) of the same compound?
A: 1.45 µg/mL (≈ 3.37 µM)

Q: What does the source list for `CC(C)c1ccc(C(c2ccc(Cl)cc2)c2ccc(C(C)C)cc(=O)c2O)c(O)c(=O)c1` [IIId, α,α-bis(2-hydroxy-6-isopropyl-tropon-3yl)-4-chlorotoluene]?
A: response vs control in vivo at 2.5 mg/kg (P388 cancer cells): 124%; response vs control in vivo at 10 mg/kg (P388 cancer cells): 144%; IC50 (KB-cells): 2 µg/mL (≈ 4.43 µM)

Q: What does the source list for `CC(C)c1ccc(C(c2ccc(N(C)C)cc2)c2ccc(C(C)C)cc(=O)c2O)c(O)c(=O)c1` [IIIe, α,α-bis(2-hydroxy-6-isopropyl-tropon-3-yl)-4-(N,N-dimethylamino)toluene]?
A: response vs control in vivo at 2.5 mg/kg (P388 cancer cells): 141%; IC50 (KB-cells): 0.69 µg/mL (≈ 1.5 µM)

Q: Which results are given for `CC(C)c1ccc(C2OCCc3ccccc32)c(O)c(=O)c1` (stereo not drawn) [IIa, 3-(1-isochromanyl)-6-isopropyltropolone]?
A: response vs control in vivo at 100 mg/kg (P388 cancer cells): 126%; IC50 (KB-cells): < 0.3 µg/mL

Q: For `O=c1ccccc(C2OCCc3ccccc32)c1O` (stereo not drawn) [IIb, 3-(1-isochromanyl)tropolone], which response vs control in vivo at 100 mg/kg (P388 cancer cells) is on record?
A: 96%

Q: For `COc1ccc(C(c2cc(C(C)C)ccc(=O)c2O)c2cc(C(C)C)ccc(=O)c2O)cc1` [IVa, α,α-bis(2-hydroxy-5-isopropyltropon-3-yl)-4-methoxytoluene], which response vs control in vivo at 2.5 mg/kg (P388 cancer cells) is on record?
A: 137%

Q: And the response vs control in vivo at 10 mg/kg (P388 cancer cells)?
A: 147%

Q: And the IC50 (KB-cells)?
A: 0.3 µg/mL (≈ 0.672 µM)

Q: For `CCOC(c1ccccc1)c1ccc(C(C)C)cc(=O)c1O` (stereo not drawn) [Ia], which response vs control in vivo at 200 mg/kg (P388 cancer cells) is on record?
A: 109%

Q: And the IC50 (KB-cells)?
A: < 0.3 µg/mL

Q: Which response vs control in vivo at 400 mg/kg (P388 cancer cells) does the source give for `CCOC(c1ccc(C)cc1)c1ccc(C(C)C)cc(=O)c1O` (stereo not drawn) [Ib, 3-(α-ethoxy-4-methylbenzyl)-6-isopropyltropolone] here?
A: 125%

Q: And the IC50 (KB-cells)?
A: 6.2 µg/mL (≈ 19.8 µM)

Q: Which response vs control in vivo at 100 mg/kg (P388 cancer cells) does the source give for `CCOC(c1ccc(OC)cc1)c1ccc(C(C)C)cc(=O)c1O` (stereo not drawn) [Ic, 3-(α-ethoxy-4-methoxybenzyl)-6-isopropyltropolone] here?
A: 140%

Q: What about the IC50 (KB-cells) of the same compound?
A: 0.51 µg/mL (≈ 1.55 µM)

Q: What does the source list for `CCOC(c1ccc(N(C)C)cc1)c1ccc(C(C)C)cc(=O)c1O` (stereo not drawn) [Id, 3-[α-ethoxy-4-(N,N-dimethylamino)benzyl]-6-isopropyltropolone]?
A: response vs control in vivo at 100 mg/kg (P388 cancer cells): 136%; IC50 (KB-cells): 0.59 µg/mL (≈ 1.73 µM)

Q: What does the source list for `CC(C)c1ccc(C(c2ccccc2)c2ccccc2)c(O)c(=O)c1` [Ie, 3-benzhydryl-6-isopropyltropolone]?
A: response vs control in vivo at 200 mg/kg (P388 cancer cells): 123%; response vs control in vivo at 400 mg/kg (P388 cancer cells): 132%; IC50 (KB-cells): 1.39 µg/mL (≈ 4.21 µM)

Q: Which response vs control in vivo at 200 mg/kg (P388 cancer cells) does the source give for `CC(C)c1ccc(Cc2ccccc2)c(O)c(=O)c1` [If, 3-benzyl-6-isopropyltropolone] here?
A: 97%

Q: And the IC50 (KB-cells)?
A: 0.56 µg/mL (≈ 2.2 µM)
